Values quoted from earlier work, collected in patent US5962457A, “2,3 Disubstituted- (5,6)-heteroarylfused-pyrimidine-4-ones” (Pfizer Inc., priority 1997, dated 1999).

Columns and labels:
[1] = rat global ischemia models; LaPeillet et al.
[2] = focal and global ischemia models; Sheardown et al., Buchan et al., LePeillet et al.

| Structure (SMILES) | neuroprotection in global ischemia [1] | prevention of global and focal ischemic damage [2] |
| --- | --- | --- |
| CC1=NN=C(c2ccc(N)cc2)c2cc3c(cc2C1)OCO3 [GKYI 52466] | effective neuroprotective agent |  |
| NS(=O)(=O)c1cccc2c1c([N+](=O)[O-])cc1[nH]c(=O)c(=O)[nH]c12 [NBQX, 2,3-dihydroxy-6-nitro-7-sulfamoylbenzo[f-]quinoxaline] |  | effective in preventing global and focal ischemic damage |
